Source: BindingDB's records for PubMed 6310078 (Pfizer, 1983)
Where a name gives a salt, the structure may show the parent alone. Each block holds one compound with its values, some of them ahead of it.

Tests used:
[1] = target: Sodium-dependent dopamine transporter (Rattus norvegicus, UniProt P23977)
[2] = target: T1, Muscarinic acetylcholine receptor M2 (Rattus norvegicus, UniProt P10980)
T1 sequence (P10980 whole entry): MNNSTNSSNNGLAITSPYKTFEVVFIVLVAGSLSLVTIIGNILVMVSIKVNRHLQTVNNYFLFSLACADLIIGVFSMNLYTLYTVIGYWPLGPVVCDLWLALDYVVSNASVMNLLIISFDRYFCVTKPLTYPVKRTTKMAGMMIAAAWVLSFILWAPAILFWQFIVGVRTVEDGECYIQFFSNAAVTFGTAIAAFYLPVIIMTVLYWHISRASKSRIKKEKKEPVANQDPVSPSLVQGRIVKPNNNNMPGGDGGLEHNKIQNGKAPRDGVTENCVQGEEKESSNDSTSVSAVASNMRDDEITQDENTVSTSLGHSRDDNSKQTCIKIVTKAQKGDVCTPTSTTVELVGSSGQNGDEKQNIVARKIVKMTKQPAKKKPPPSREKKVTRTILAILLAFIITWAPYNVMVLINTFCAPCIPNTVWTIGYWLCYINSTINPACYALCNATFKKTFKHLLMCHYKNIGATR

[3] = target: Norepinephrine transporter (Rattus norvegicus, UniProt Q9JIA2)

Chain of Sodium-dependent dopamine transporter (P23977 whole entry): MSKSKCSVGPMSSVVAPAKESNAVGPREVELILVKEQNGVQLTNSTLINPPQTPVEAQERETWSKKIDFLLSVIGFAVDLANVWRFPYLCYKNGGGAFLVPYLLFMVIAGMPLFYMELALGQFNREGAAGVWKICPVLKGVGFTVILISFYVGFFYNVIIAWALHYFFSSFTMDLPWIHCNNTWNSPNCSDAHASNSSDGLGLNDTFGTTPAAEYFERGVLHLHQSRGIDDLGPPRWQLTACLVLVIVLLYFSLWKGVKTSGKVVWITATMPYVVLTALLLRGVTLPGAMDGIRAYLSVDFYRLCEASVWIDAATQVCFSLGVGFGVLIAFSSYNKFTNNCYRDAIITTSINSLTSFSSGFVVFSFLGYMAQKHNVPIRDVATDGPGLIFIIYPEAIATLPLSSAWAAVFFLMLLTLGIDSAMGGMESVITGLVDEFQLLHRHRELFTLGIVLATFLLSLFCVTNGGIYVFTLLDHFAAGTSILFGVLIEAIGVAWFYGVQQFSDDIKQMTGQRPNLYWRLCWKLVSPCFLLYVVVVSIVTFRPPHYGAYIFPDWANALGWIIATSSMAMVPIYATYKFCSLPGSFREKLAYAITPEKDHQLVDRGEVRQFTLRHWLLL

SMILES: CN(C)CCC=C1c2ccccc2CCc2ccccc21
Ki [1]: > 10 µM
Ki [2]: 0.32 µM
Ki [3]: 0.13 µM

SMILES: N[C@H]1CC[C@@H](c2ccc(Cl)c(Cl)c2)c2ccccc21
Ki [1]: 3.8 µM
Ki [3]: 4.6 µM

SMILES: CN[C@@H]1CC[C@@H](c2ccccc2)c2ccccc21
Ki [1]: 0.15 µM
Ki [2]: 4.7 µM
Ki [3]: 0.018 µM

SMILES: COCCCC/C(=N\OCCN)c1ccc(C(F)(F)F)cc1 [(1E)-5-methoxy-1-[4-(trifluoromethyl)phenyl]pentan-1-one O-(2-aminoethyl)oxime]
Ki [1]: > 10 µM
Ki [3]: 1.9 µM

SMILES: CNCCCN1c2ccccc2CCc2ccccc21 [Desmethylimipramine]
Ki [2]: 3.5 µM

Other lines, results leading:

Ki [1]: > 10 µM
SMILES: CNC/C=C(/c1ccc(Br)cc1)c1cccnc1

Ki [2]: 0.71 µM
SMILES: CN(C)CC/C=C1/c2ccccc2COc2ccccc21

Ki [1]: 8.1 µM
SMILES: CN(C)CCCN1c2ccccc2CCc2ccc(Cl)cc21 [CLOMIPRAMINE HYDROCHLORIDE]

Ki [1]: > 10 µM
Ki [3]: 0.025 µM
SMILES: CNCCC=C1c2ccccc2CCc2ccccc21 [NORTRIPTYLINE]

Ki [2]: > 10 µM
SMILES: CN[C@@H]1CC[C@@H](c2ccc(Cl)c(Cl)c2)c2ccccc21 [[4-(3,4-Dichloro-phenyl)-1,2,3,4-tetrahydro-naphthalen-1-yl]-methyl-amine]

Ki [1]: > 10 µM
SMILES: CN(C)C/C=C(/c1ccc(Br)cc1)c1cccnc1 [cis-[3-(4-Bromo-phenyl)-3-pyridin-3-yl-allyl]-dimethyl-amine;HCl]
